Test results published in patent US9242972B2, “Compounds” (Glaxo Group Limited, priority 2012, dated 2016).

Experiments:
[1] = system: IL-17A secreted from antiCD3/CD28 stimulated Peripheral Blood Mononuclear cells (PBMC); experiment: Peripheral Blood Mononucleocyte Cell Assay (PBMC Assay - IL-17); type: cell-based; conditions: inhibition of IL-17A release, human PBMC stimulated with CD3/CD28 beads, 48 hours; read-out: mean pIC50 (converted)
Experimental: Peripheral Blood Mononucleocyte Cell Assay (PBMC Assay—IL-17)
This assay is designed to measure levels of IL-17A secreted from antiCD3/CD28 stimulated frozen Peripheral Blood Mononuclear cells (PBMC) isolated from human blood with the aim of identifying inhibitors of IL-17A release.
2. The compounds for screening are dispensed into a master plate at 10 mM top concentration which are serially diluted 1:3 across 11 points in DMSO, then 500 nl is transferred into a 384-well flat-bottomed Greiner plate to which 50 ul of cell suspension is added: for the single shot screening the highest concentration of compound is 10^−5 M; for 11 point full curve dose response studies the highest concentration is 10^−4 M.
As a low control, DMSO (as supplied, for example, by VWR) (final concentration 1%) in column 6 (16 points).
As a high control, 5-(4-fluorophenyl)-2-ureidothiophene-3-carboxamide (obtainable from, for example, Sigma) at a final concentration of 10^−4 M in DMSO should be used in column 18 (16 points).
9. Make the cell suspension at the concentration 8×10^5 cells/mL. to give a final number of 40,000 cells/well.
1. Add well mixed CD3/CD28 Dynabeads (as supplied, for example, by Dynal) to achieve ratio bead:cell=2:1 (i.e a dilution of 1 in 20). Mix thoroughly.
2. Dispense the suspension into the 384 Assay Plates using Multidrop (50 ul per well). If the volume of cell suspension is large, mix the suspension after dispensing into every other plate.
3. Cover the plates with the lids and place them to the humidified incubator (37° C., 5% CO2) for 48 hours.
1. Block cytokine capture Mesoscale Discovery MSD plates with 0.1% Block buffer B (provided by Mesoscale Discovery) in D-PBS solution using 40 ul per well.
1. Transfer 10 ul of supernatants from assay plates to the MSD plates using Cybiwell. Ensure that all wells are covered with the solution. Tap the plate gently, if some of the wells are not covered with the supernatant.
3. Add 10 ul of MSD IL-17 detecting antibody using multidrop (1 ug/mL in D-PBS without Ca^2+ and Mg^2+ (supplied, for example, by Gibco)).
4. Cover the plates with adhesive foil and incubated with shaking for 3 hours at room temperature
7. Add 35 ul of MSD Read Buffer T×2 using multidrop.
8. Read plates on MSD MA6000 reader using the 384 well plate protocol as per manufacturer's instructions.

[2] = target: T1, RORγ ligand binding domain (RORγ-LBD) (Homo sapiens, UniProt P51449); experiment: Dual Fluorescence Energy Transfer (FRET) Assay; type: biochemical; conditions: RORγ-LBD / SRC1(2) co-activator peptide interaction, read-out: mean pIC50 (converted)
T1 construct: His6 with thrombin site) (N); made in house; host or cells: E. coli BL21(DE3), modified pET21a vector
T1 sequence (P51449 263-518): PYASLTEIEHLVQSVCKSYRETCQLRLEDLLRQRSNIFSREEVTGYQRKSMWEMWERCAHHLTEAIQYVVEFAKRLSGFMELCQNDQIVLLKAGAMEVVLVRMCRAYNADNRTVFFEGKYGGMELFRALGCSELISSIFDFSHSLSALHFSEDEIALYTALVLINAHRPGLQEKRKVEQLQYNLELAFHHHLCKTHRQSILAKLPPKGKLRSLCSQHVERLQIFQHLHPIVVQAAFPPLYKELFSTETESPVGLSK
Excerpt: Dual Fluorescence Energy Transfer (FRET) Assay
This assay is based on the knowledge that nuclear receptors interact with cofactors (transcription factors) in a ligand dependent manner. RORγ is a typical nuclear receptor in that it has an AF2 domain in the ligand binding domain (LBD) which interacts with co-activators. The sites of interaction have been mapped to the LXXLL (SEQ ID NO:1) motifs in the co-activator SRC 1(2) sequences. Short peptide sequences containing the LXXLL (SEQ ID NO:1) motif mimic the behavior of full-length co-activator.
This assay measures ligand-mediated interaction of the co-activator peptide with the purified bacterial-expressed RORγ ligand binding domain (RORγ-LBD) to indirectly assess ligand binding. RORγ has a basal level of interaction with the co-activator SRC1(2) in the absence of ligand, Thus, it is possible to find ligands that inhibit or enhance the RORγ/SRC1(2) interaction.
Human RORγ Ligand Binding Domain (RORγ-LBD) was expressed in E. coli strain BL21(DE3) as an amino-terminal polyhistidine tagged fusion protein. DNA encoding this recombinant protein was sub-cloned into a modified pET21a expression vector (Novagen). A modified polyhistidine tag ([…]) (SEQ ID NO:2) was fused in frame to residues 263-518 of the human RORγ sequence.
Approximately 50 g E. coli cell pellet was resuspended in 300 mL of lysis buffer (30 mM imidazole pH 7.0 and 150 mM NaCl). Cells were lysed by sonication and cell debris was removed by centrifugation for 30 minutes at 20,000 g at 4° C. The cleared supernatant was filtered through a 0.45 uM cellulose acetate membrane filter. The clarified lysate was loaded onto a column (XK-26) packed with ProBond Nickel Chelating resin (InVitrogen), pre-equilibrated with 30 mM imidazole pH 7.0 and 150 mM NaCl. After washing to baseline absorbance with the equilibration buffer, the column was developed with a gradient from 30 to 500 mM imidazole pH 7.0. Column fractions containing the RORγ-LBD protein were pooled and concentrated to a volume of 5 mLs. The concentrated protein was loaded onto a Superdex 200 column pre-equilibrated with 20 mM Tris-Cl pH 7.2 and 200 mM NaCl. The fractions containing the desired RORγ-LBD protein were pooled together.
Purified RORγ-LBD was buffer exchanged by exhaustive dialysis [3 changes of at least 20 volumes (8000×)] against PBS [100 mM NaPhosphate, pH 8 and 150 mM NaCl]. The concentration of RORγ-LBD was approximately 30 uM in PBS. Five-fold molar excess of NHS-LC-Biotin (Pierce) was added in a minimal volume of PBS. This solution was incubated with occasional gentle mixing for 60 minutes at ambient room temperature. The modified RORγ-LBD was dialyzed against 2 buffer changes—TBS pH 8.0 containing 5 mM DTT, 2 mM EDTA and 2% sucrose—each at least 20 times of the volume. The modified protein was distributed into aliquots, frozen on dry ice and stored at −80° C. The biotinylated RORγ-LBD was subjected to mass spectrometric analysis to reveal the extent of modification by the biotinylation reagent. In general, approximately 95% of the protein had at least a single site of biotinylation and the overall extent of biotinylation followed a normal distribution of multiple sites ranged from one to five.
A biotinylated peptide corresponding to amino acid 676 to 700 ([…]) (SEQ ID NO:3) of the co-activator steroid receptor coactivator SRC1(2) was generated using similar method.
Biotinylated SRC1(2) solution was prepared by adding an appropriate amount of biotinylated SRC1(2) from the 100 uM stock solution to a buffer containing 10 mM of freshly added DTT from solid to give a final concentration of 40 nM. An appropriate amount of Europium labeled Streptavidin was then added to the biotinylated SRC1(2) solution in a tube to give a final concentration of 10 nM. The tube was inverted gently and incubated for 15 minutes at room temperature. […]

## Cc1cc(C(C)C)cnc1N(CC(C)C)S(=O)(=O)c1ccc(OC[C@H]2CCNC[C@H]2F)cc1 (relative stereo) [Example 35, 4-((cis-3-fluoropiperidin-4-yl)methoxy)-N-isobutyl-N-(5-isopropyl-3-methylpyridin-2-yl)benzenesulfonamide]
[1]
  IC50: 1000 nM

## Cc1noc(C)c1COc1ccc(S(=O)(=O)N(CC(C)C)c2ccc(C(C)C)cn2)cc1 [Example 2, 4-((3,5-dimethylisoxazol-4-yl)-methoxy)-N-isobutyl-N-(5-isopropylpyridin-2-yl)benzenesulfonamide]
[1]
  IC50: 1000 nM
[2]
  IC50: ≤ 31.6 nM

## Cc1noc(C)c1COc1ccc(S(=O)(=O)N(CC(C)C)c2nccc(C(F)(F)F)n2)cc1 [Example 14, 4-{[(3,5-dimethyl-4-isoxazolyl)methyl]oxy}-N-(2-methylpropyl)-N-[4-(trifluoromethyl)-2-pyrimidinyl]benzenesulfonamide]
[2]
  IC50: > 10000 nM

## Cc1cnc(N(CC(C)C)S(=O)(=O)c2ccc(OCc3c(C)noc3C)cc2)c(C)c1 [Example 15, 4-{[(3,5-dimethyl-4-isoxazolyl)methyl]oxy}-N-(3,5-dimethyl-2-pyridinyl)-N-(2-methylpropyl)benzenesulfonamide]
[2]
  IC50: ≤ 31.6 nM

## CCc1ccc(C)nc1N(CC(C)C)S(=O)(=O)c1ccc(OCc2c(C)noc2C)cc1 [Example 24, 4-((3,5-dimethylisoxazol-4-yl)methoxy)-N-(3-ethyl-6-methylpyridin-2-yl)-N-isobutylbenzenesulfonamide]
[1]
  IC50: 1000 nM
[2]
  IC50: ≤ 31.6 nM

## Cc1cc(C(C)C)cnc1N(CC(C)C)S(=O)(=O)c1ccc(OCC2CCOCC2)cc1 [Example 31, N-isobutyl-N-(5-isopropyl-3-methylpyridin-2-yl)-4-((tetrahydro-2H-pyran-4-yl)methoxy)benzenesulfonamide]
[2]
  IC50: ≤ 31.6 nM

## C=C(C)c1cnc(N(CC(C)C)S(=O)(=O)c2ccc(OCC3CCOCC3)cc2)c(C)c1 [Example 32, N-isobutyl-N-(3-methyl-5-(prop-1-en-2-yl)pyridin-2-yl)-4-((tetrahydro-2H-pyranyl)methoxy)benzenesulfonamide]
[2]
  IC50: ≤ 31.6 nM

## CC(C)CN(c1ccc(C(C)C)cn1)S(=O)(=O)c1ccc(OCC2CCOCC2)cc1 [Example 33, N-isobutyl-N-(5-isopropylpyridin-2-yl)-4-((tetrahydro-2H-pyran-4-yl)methoxy)benzenesulfonamide]
[2]
  IC50: ≤ 31.6 nM

## Cc1cc(Cl)cnc1N(CC(C)C)S(=O)(=O)c1ccc(OCC2CCOCC2)cc1 [Example 34, N-(5-chloro-3-methylpyridin-2-yl)-N-isobutyl-4-((tetrahydro-2H-pyran-4-yl)methoxy)benzenesulfonamide]
[2]
  IC50: ≤ 31.6 nM

## CC(C)c1ccc(N(C(C)C(C)C)S(=O)(=O)c2ccc(OCC3CCOCC3)cc2)nc1 (stereo not drawn) [Example 38, N-(5-isopropylpyridin-2-yl)-N-(3-methylbutan-2-yl)-4-((tetrahydro-2H-pyran-4-yl)methoxy)benzenesulfonamide]
[1]
  IC50: 1000 nM
[2]
  IC50: ≤ 31.6 nM

## Cc1noc(C)c1COc1ccc(S(=O)(=O)N(CC2CCC2)c2ccc(C(C)C)cn2)cc1 [Example 47, N-(cyclobutylmethyl)-4-((3,5-dimethylisoxazol-4-yl)methoxy)-N-(5-isopropylpyridin-2-yl)benzenesulfonamide]
[2]
  IC50: ≤ 31.6 nM

## CCC(C)CN(c1ccc(C(C)C)cn1)S(=O)(=O)c1ccc(OCc2c(C)noc2C)cc1 (stereo not drawn) [Example 49, 4-((3,5-dimethylisoxazol-4-yl)methoxy)-N-(5-isopropylpyridin-2-yl)-N-(2-methylbutyl)benzenesulfonamide]
[2]
  IC50: ≤ 31.6 nM
